{"source": "paper PMC3951324", "about": "“Side Chain Hydrophobicity Modulates Therapeutic Activity and Membrane Selectivity of Antimicrobial Peptide Mastoparan-X” (PLoS ONE, 2014)", "experiment": "Pyrene-cmc assay (micelle/aggregate formation)", "format": "physicochemical", "procedure": "Fluorescence excitation spectra were collected using an Olis modernized SLM8000 fluorescence spectrophotometer equipped with single-grating emission and double-grating excitation monochromator. The fluorometer was equipped with photon counter detectors. Pyrene was used to probe micellation as it is sensitive to environment hydrophobicity. Peptides were incubated in concentrations of 0.1–1000 µM in 10 mM HEPES, 100 mM sodium chloride, pH 7.4 buffer containing 75 nM pyrene. Samples were incubated for 2 h at 60°C followed by incubation overnight at room temperature and kept in the dark until measured. Measurements were carried out at 37°C. Excitation spectra were collected using emission wavelength 390 nm and 16 nm emission slit sizes. Excitation spectra were scanned in range 310–350 nm with excitation slits sizes of 0.5 nm. The excitation spectrum shift denotes the formation of micelles/aggregates (hydrophobic cavity), which is gauged by intensity ratio R = I339/I333 [29],[30]. The plot of R versus the detergent/peptide concentration, c, measures the partitioning of pyrene into the formed micelles/aggregates. The intensity ratio is fitted using the sigmoidal function [drawing 1] , where R0 and ΔR denote the initial and change in intensity ratio, respectively. α and ci denote the normalized slope and peptide concentration at which curve inflection occurs, respectively. […]", "note": "Ends that are not written are not given here.", "data": [{"substance": "INWKGIAAMAKKLL-NH2 [MPX, mastoparan X, reference compound]", "values": [{"measurement": "Critical micelle concentration (cmc)", "setting": "pyrene (75 nM) fluorescence excitation shift I339/I333, 10 mM HEPES, 100 mM NaCl, pH 7.4, peptide 0.1–1000 µM, 2 h 60°C then overnight RT, measured at 37°C, cmc = onset of sigmoid, triplicates", "result": ">1000", "unit": "µM"}, {"measurement": "cmc", "setting": "pyrene assay, no shift in pyrene excitation spectrum in covered concentration range, pH 7.4, 37°C", "result": "> 1", "unit": "mM"}]}]}
